How the values were obtained:
Hif1α [1] = assay: Hif1α knockdown in subcutaneous xenograft tumors (QPCR, IHC), doxycycline in drinking water; assay type: in vivo, SCID mice; settings: D54_Hif25 tumors, 1 mg/ml doxycycline in drinking water for 3 days
Experimental: Mice bearing 200-300 mm^3 tumors were supplied with doxycycline (1 mg/ml) for 3, 6, 9 or 12 days. Tumors were collected at the end of treatment and Hif1α mRNA levels were determined by QPCR. Tumors from mice without Dox treatment were used as controls. […] Hif1α mRNA level was determined by QPCR. […] The Hif1α expression level was examined by IHC, and quantified using AxioVision 4 (Zeiss).
To determine whether target knockdown can be induced in xenograft tumors, the D54_Hif25 cells were injected subcutaneously into SCID mice. After tumors reached an average size of 200 mm^3, the mice were supplied with drinking water containing 1 mg/ml doxycycline to induce the expression of Hif1α shRNA. After treating the mice with doxycycline for 3, 6, 9, or 12 days, the tumors were collected and analyzed by QPCR to determine the Hif1α messenger level. […] Examination of the tumor samples by immunohistochemistry indicated a clear reduction of the Hif1α protein from day 3 onward (data not shown).
To determine whether the ability to induce target knockdown would be impaired over long-term doxycycline treatment or when the tumors reach a very large size, further analysis was performed of the knockdown of Hif1α in tumors from mice treated with doxycycline for 45 days. The average tumor size at the end of treatment was 2000 mm^3. […]

Hif1α [2] = assay: Hif1α protein level (western) in D54_Hif clones with or without doxycycline; assay type: cell-based, human; settings: D54_Hif18 cells, 1 μg/ml doxycycline
Experimental: (§1) Cells were incubated in the presence or absence of 1 μg/ml doxycycline. After thirty-six hours, cells were either untreated (N) or subjected to hypoxia treatment (H) for an additional sixteen hours. The cells were lysed and analyzed by western blotting using antibodies against Hif1α (upper panel) or Hif1β (lower panel). […] Cells were transfected with either pGL3-control/pRL-TK (left panel) or 1×HRE/pRL-TK plasmids (right panel) in the presence or absence of 1 μg/ml doxycycline. Thirty-six hours following transfection, cells were subjected to hypoxia treatment. Luciferase activities were determined sixteen hours after hypoxia treatment. […] Cells were incubated in the presence or absence of 1 μg/ml doxycycline. After thirty-six hours, cells were either untreated (N) or subjected to hypoxia treatment (H) for an additional sixteen hours. Total RNA were prepared and used in quantitative PCR for analyzing the level of the indicated genes.
(§2) To assess the potential therapeutic effect of Hif1 inhibition, we established stable cell lines from D54MG parental cells that express an shRNA against Hif1α under the control of doxycycline. A panel of 8 shRNAs against Hif1α was first screened for their abilities to knockdown the target (data not shown), and the best shRNA was selected for the creation of Hif1α knockdown cell lines. […]

human Hif1α = assay: Western analysis of Hif1α protein in HeLaTREx stable clones carrying 2O2_Hif1, doxycycline induction; assay type: cell-based
Experimental: Cells were directly lysed on 6-well plates in 1× Laemmli sample buffer. Proteins were separated by SDS-PAGE, transferred to PVDF membrane, and western blotting was performed using antibodies against Chk1 (1:200, Santa Crutz Biotechnology, Santa Crutz, Calif. 95060), HIF-1 alpha (1:500, BD Bioscience, Palo Alto, Calif. 94303) or tetR (1:2000, Mo Bi Tec, Germany).
To determine whether the 2O2 promoter retains the ability to respond to doxycycline after integrating into chromosomes, the inventors used a commercial tetR expressing cell line, HeLaTREx, (Invitrogen Corp., Carlsbad, Calif. 92008) to establish stable clones that carried the 2O2 promoter linked to an shRNA targeting human Hif1α (2O2_Hif1).
Using the best-regulated 2O2_Hif1 clone (Hif1-7), the inventors further characterized the time and dose dependency of doxycycline induction of the 2O2 expression system. […] The doxycycline concentration that is required for maximal induction of the 2O2 system was determined in a dose-response experiment.

[3] = test system: Hif1 dependent transcriptional activity; assay: Hif1 reporter (1×HRE) luciferase activity in D54_Hif clones; assay type: cell-based, human; settings: D54_Hif25 cells, 1 μg/ml doxycycline, hypoxia
Experimental: as §1, §2

tyrosinase = assay: Tyrosinase knockdown mice by pronuclear injection of 2O2 promoter transgenes; assay type: in vivo; settings: mice without tetR expression
Experimental: Pronuclear injection is a well-established method for creating transgenic animals. In this approach, a DNA fragment (the transgene) is injected into the pronuclear stage of fertilized eggs, and the injected eggs are implanted into pseudopregnant animals. In a typical experiment, 50-80 eggs are injected in which half of the injected eggs will survive to generate neonates and 5%-20% of the neonates will contain the transgene.
Tyrosinase was selected as a target to knockdown. Tyrosinase is a key enzyme in melanin production, and the knockdown of tyrosinase in mice will generate an apparent coat color change.
To determine whether a modified pol III dependent promoter, such as the 2O2 promoter, is suitable for the creation of knockdown animals, transgenes were created that used the 2O2 promoters to express the two best shRNAs against tyrosinase (2O2-Tyr731 (SEQ ID NO: 46) and 2O2-Tyr338 (SEQ ID NO: 47)). These transgenes are shown below. The bold characters represent the shRNA sequences and the underscored characters represent the promoter sequences. […] In mice without tetR expression, the 2O2 promoter is expected to be constitutively active.

Molecule: C[C@H]1c2cccc(O)c2C(=O)C2=C(O)[C@]3(O)C(=O)C(C(N)=O)=C(O)[C@@H](N(C)C)[C@@H]3[C@@H](O)[C@@H]21 [doxycycline]
- reduction of the Hif1α mRNA in tumors (Hif1α [1]): 80%
- reduction of the Hif1α protein (Hif1α [2]): 80%
- inhibition of Hif-1 protein (human Hif1α; clone Hif1-7, 0.1 ng/ml of doxycycline): more than 90%
- inhibition of Hif-1 protein (human Hif1α; clone Hif1-7, 24 hours after doxycycline treatment): more than 90%
- doxycycline concentration at which maximal inhibition of Hif1α protein was reached (human Hif1α; clone Hif1-7, dose-response experiment): 10 ng/mL
- reduction of the Hif1 reporter activity [3]: 80%

B1: 2O2-Tyr338: transgene using the 2O2 promoter to express an shRNA against tyrosinase (SEQ ID NO: 47) (nucleic acid)
DNA: GAATTCCAGGCAAAACGCACCACGTGACGGAGCGTGACCGCGCGCCGAGCGCGCGCCAAGGTCGGGCAGGAAGAGGGCCTATTTCCCATGATTCCATCATATTTGCATATACGATACAAGGCTGTTAGAGAGATAATTAGAATTAATTCGACTGTAAACACAAAGATATTAGTATAAAATACGTGACGTAGAAAGTAATAATTTCTTGGGTAGTTTGCAGTTTTAAAATTATGTTTTAAAATGGACTATCATATGCTTACCGTAACTTGAAACTCCCTATCAGTGATAGAGATTATATATCTCCCTATCAGTGATAGAGACCGGCAACTTCATGGGTTTCATTCAAGAGATGAAACCCATGAAGTTGCCTTTTTTAAGCTT
modifications: 2O2 promoter transgene; 2O2-Tyr338
- viability of transgene-positive embryos (tyrosinase; 40 pups without transgene, two dead embryos with it): embryonic lethality

B2: 2O2-Tyr731: transgene using the 2O2 promoter to express an shRNA against tyrosinase (SEQ ID NO: 46) (nucleic acid)
DNA: GAATTCCAGGCAAAACGCACCACGTGACGGAGCGTGACCGCGCGCCGAGCGCGCGCCAAGGTCGGGCAGGAAGAGGGCCTATTTCCCATGATTCCATCATATTTGCATATACGATACAAGGCTGTTAGAGAGATAATTAGAATTAATTCGACTGTAAACACAAAGATATTAGTATAAAATACGTGACGTAGAAAGTAATAATTTCTTGGGTAGTTTGCAGTTTTAAAATTATGTTTTAAAATGGACTATCATATGCTTACCGTAACTTGAAACTCCCTATCAGTGATAGAGATTATATATCTCCCTATCAGTGATAGAGACCGTGACATTTGCACAGATGATTCAAGAGATCATCTGTGCAAATGTCACTTTTTTAAGCTT
modifications: 2O2-Tyr731
- coat color of transgene-positive pups (tyrosinase; three of 20 pups carried the transgene): different degrees of coat color change

Source: US20060031949A1, “Inducible expression systems for modulating the expression of target genes in eukaryotic cells and non-human animals” (priority 2004, published 2006)
